Test results as given in patent publication US20070197510A1, “Nitriles and medicinal compositions containing the same as the active ingredient” (priority 2004, published 2007).

Biological target: T1, cathepsin K (Homo sapiens, UniProt P43235)
T1 sequence (P43235 115-329): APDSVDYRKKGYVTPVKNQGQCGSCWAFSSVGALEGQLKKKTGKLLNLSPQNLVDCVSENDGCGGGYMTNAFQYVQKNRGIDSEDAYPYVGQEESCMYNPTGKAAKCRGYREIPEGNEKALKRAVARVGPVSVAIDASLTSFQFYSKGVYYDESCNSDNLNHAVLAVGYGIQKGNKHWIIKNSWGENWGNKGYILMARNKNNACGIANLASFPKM
Assay: Measurement of cathepsin K inhibitory activity
Type: biochemical
Details: fluorogenic substrate Boc-Ala-Gly-Pro-Arg-MCA, pH 5.5, 37° C.
Protocol: (i) Measurement of Cathepsin k Inhibitory Activity
65 μL of Cathepsin K Enzyme Reaction Buffer (50 Mmol/L of 2-(N-morpholino)ethanesulfonate, 2 mmol/L of ethylenediaminetetraacetate (EDTA) and 4 mmol/L of dithiothreitol (DTT) were mixed to adjust to pH 5.5), 5 μL of cysteine protease inhibitor solution of several concentrations, 20 μL of synthesized substrate (t-butyloxycarbonyl-L-alanyl-glycyl-L-prolyl-L-arginine-[…]) solution of several concentrations and 10 μL of cathepsin K enzyme solution were mixed and the increase of fluorescence intensity when reacted at 37° C. was measured (λex (excitation wavelength)=355 nm, λem (fluorescence wavelength)=460 nm). As to the substrate and the compound of the present invention, enzyme reactions were carried […]

IC50 [nM] | SMILES
12 | CN1CCN(C(=O)CN2Cc3cnc(C#N)nc3N(CC(C)(C)C)C2=O)CC1 [Example 55(14), 8-(2,2-dimethylpropyl)-6-[2-(4-methyl-1-piperazinyl)-2-oxoethyl]-7-oxo-5,6,7,8-tetrahydropyrimido[4,5-d]pyrimidine-2-carbonitrile]
2.9 | CC(C)(C)Cn1c2nc(C#N)ncc2c(=O)n1Cc1cccs1 [compound 8(2B), 1-(2,2-dimethylpropyl)-3-oxo-2-(2-thienylmethyl)-2,3-dihydro-1H-pyrazolo[3,4-d]pyrimidine-6-carbonitrile]
